Values after ≈ are worked out from the molar mass of the structure shown.
Settings: buffer; pH 7.4; 200.0 µM

SMILES | solubility kinetic [µg/mL]
O=C(Nc1ccncc1)Nc1cccc(C(F)(F)F)c1 | 5.4 (≈ 19.2 µM)
COc1cc2nc(Cl)nc(NCCO)c2cc1OC | 24.7 (≈ 87.1 µM)
Cc1ccc(CC(=O)NCC2CCCCC2)cc1 | 9.3 (≈ 37.9 µM)
Cc1ccc2cccc(OCC(=O)NCCC3=CCCCC3)c2n1 | 46.5 (≈ 143 µM)
O=C1c2ccccc2C(=O)N1CCOc1ccc(F)cc1 | 4 (≈ 14 µM)
COc1ccc(NC(=O)N2CCc3ccccc3C2)cc1 | 17.8 (≈ 63 µM)
O=C(COc1ccccc1)Nc1nc2c(s1)CCCC2 | 3.7 (≈ 12.8 µM)
CC(=O)Nc1ccc2c(c1)nc(CCN1CCN(c3ccccn3)CC1)n2C | < 0.1
O=C(c1cc2c(s1)-c1ccccc1S(=O)(=O)C2)N1CCCC1 | 47.6 (≈ 143 µM)
Cc1cccc(C(=O)N[C@H](C(=O)Nc2ccc3c(c2)OCO3)C(C)C)c1 | 5.5 (≈ 15.5 µM)
O=C(Oc1ccc(F)cc1)N1CCOCC1 | > 33.8
COc1ccc(S(=O)(=O)N2CCOCC2)cc1NC(=O)CCCOc1ccccc1 | 40.9 (≈ 94.1 µM)
COc1ccc(CNC(=O)CCC(=O)Nc2ccc(Cl)cc2)cc1 | 1.3 (≈ 3.75 µM)
Cc1cc(C)nc(/N=C(\NC(=O)C(C)(C)C)Nc2ccc(F)cc2)n1 | 0.5 (≈ 1.46 µM)
CC(=O)Nc1ccc(S(=O)(=O)N(C)c2ccc(OCCOc3cccc(C)c3)cc2)cc1 | 5 (≈ 11 µM)
CCN(CC)C(=O)Cn1cc(SCC(=O)NC)c2ccccc21 | 46.5 (≈ 139 µM)
Cc1ccc(OCC(=O)Nc2ccc(CN3CCOCC3)cc2)cc1 | 27.8 (≈ 81.7 µM)
O=C(c1ccccc1)n1c(=O)c(F)cn(COCCBr)c1=O | > 55.7
O=C(Nc1cccc(O)c1)C1CC(c2ccc(Cl)cc2)=NO1 (stereo not drawn) | 2.3 (≈ 7.26 µM)
Cc1ccccc1OCC(=O)Nc1nc(-c2ccncc2)cs1 | 4.9 (≈ 15.1 µM)

SMILES | solubility kinetic [µg/mL]
COc1cccc(C=N[C@@H](CO)[C@@H](O)c2ccc([N+](=O)[O-])cc2)c1O | 50.6 (≈ 146 µM)
COC(=O)/C(C#N)=C/c1c(Oc2cccc(C)c2C)nc2ccccn2c1=O | 1 (≈ 2.66 µM)
COc1ccc(S(=O)(=O)Nc2ccc3c(c2)n(C)c(=O)n3C)cc1C | > 54.2
Cc1cc(C)c(NC(=S)NCCCSC2CCCCC2)c(C)c1 | 6.1 (≈ 17.4 µM)
COc1ccc(Cl)cc1NC(=O)CN(C)C(=O)C1CC1 | > 44.5
CC(NCCC1(C(C)C)CCOC(C)(C)C1)c1cccs1 (stereo not drawn) | > 46.4
CC(=O)Nc1ccc(NC(=O)N(c2ccccc2)c2ccccc2)cc1 | 6.4 (≈ 18.5 µM)
CCCN1C2CCCC1CC(NC(=S)NCCCOCC)C2 (stereo not drawn) | > 49.1
COc1ccccc1N(CC(=O)Nc1ccccc1C(F)(F)F)S(=O)(=O)c1cccs1 | 9 (≈ 19.1 µM)
Cc1ccn2cc(-c3cc4ccccc4oc3=O)nc2c1 | 3.1 (≈ 11.2 µM)
Cc1oc(-c2ccc(Cl)cc2)cc1C(=O)/C(C#N)=C/Nc1ccccc1 | 1.4 (≈ 3.86 µM)
O=c1oc(-c2ccco2)nc2sc3c(c12)CCCCC3 | < 0.6
Brc1cnc2nc[nH]c2c1 | > 29.7
Cc1cc(C)c2nc(N(CCN(C)C)C(=O)c3ccc4ccccc4c3)sc2c1.Cl | 2.3
O=C(CN1C(=O)NC2(CCCCCCC2)C1=O)Nc1c(Cl)cccc1Cl | 7.4 (≈ 18.6 µM)
CC(=O)Nc1ccc(SCc2csc(C)n2)cc1 | 35.4 (≈ 127 µM)
COc1ccc(CNC(=O)COC(=O)[C@H](Cc2ccccc2)NC(=O)c2cccs2)cc1 | 51 (≈ 113 µM)
Cc1cccc(N2CCN(S(=O)(=O)c3ccc(Cl)nc3)CC2C)c1 (stereo not drawn) | 3.6 (≈ 9.84 µM)
CCOc1ccc(-c2c(C)sc3nc[nH]c(=O)c23)cc1 | 24.6 (≈ 85.9 µM)
COc1ccc(/C=C/C(=O)N2CCOCC2)cc1OC | > 41.6

SMILES | solubility kinetic [µg/mL]
O=C(/C=C/c1ccccc1)Nc1cc(NC(=O)/C=C/c2ccccc2)cc(C(=O)O)c1 | 52.7 (≈ 128 µM)
CC1(C2CC2)NC(=O)N(CC(=O)NCC(=O)Nc2ccc(F)c(F)c2F)C1=O (stereo not drawn) | > 59.8
CCC(=O)Nc1ccc(-c2ccc(N3CCN(C)CC3)nn2)cc1 | > 48.8
Cc1ccccc1Nc1ncnc(N)n1 | > 30.2
CCOC(=O)c1cc(NC(=O)c2cccnc2)ccn1 | 37.1 (≈ 137 µM)
COc1ccc(Cn2c(=O)cc(N)n(-c3ccccc3C)c2=O)cc1 | > 50.6
Cc1cccc(NC(=O)c2cc([N+](=O)[O-])ccc2N2CCCCC2)n1 | 0.4 (≈ 1.18 µM)
Cc1cc(C)c(C(=O)N2CCC3(CC2)OCCO3)c(C)c1 | > 43.4
Cn1c(N)c(C(=O)COC(=O)c2ccc3ccccc3c2)c(=O)n(C)c1=O | 3.8 (≈ 10.3 µM)
C[C@H](NCc1c[nH]c2ccccc12)c1ccccc1 | > 37.6
CCOc1ccc(-c2nc(N)ncc2-c2ccc(Cl)cc2)c(O)c1 | 0.9 (≈ 2.63 µM)
CC1C(=O)C(C)(C)C(=O)OC1c1ccc([N+](=O)[O-])cc1 (stereo not drawn) | 12.4 (≈ 44.7 µM)
O=C(Cn1cc(C(F)(F)F)ccc1=O)N1CCCc2ccccc21 | > 50.4
CC(=O)Nc1ccc(S(=O)(=O)Nc2ccc(C)c([N+](=O)[O-])c2)cc1 | > 52.4
O=c1oc(/C=C/c2ccccc2)nc2ccccc12 | 0.7 (≈ 2.81 µM)
CCOCc1c(C(=O)NCC(c2ccco2)N2CCCC2)oc2ccccc12 (stereo not drawn) | 56.2 (≈ 147 µM)
Cc1cnc(=O)[nH]c1SCc1ccc([N+](=O)[O-])cc1 | 22.1 (≈ 79.7 µM)
Cc1ccccc1Nc1c([N+](=O)[O-])ccc2nonc12 | 0.2 (≈ 0.74 µM)
